Data as given in publication PMC12345137 (mBio, 2025).
Several values for one entry are separate records, joined by “and”; a condition that tells them apart may be missing. Equal entries are not always repeated. Where two headings read alike, the source gives them in different places. Positions of bridges follow the written chain, without caps; N, C: chain ends. Residues, ends and D or L forms follow the SMILES beside them.

Tests used:
S. aureus (SA) agr-II = tested on: S. aureus (SA) agr-II; parameters: method as in ref (5) (a number printed in a supplementary file, which may have a reference list of its own: not looked up in the article's list); details: hemolysis; ref (5); cited from earlier work
S. aureus (SA) agr-I [1] = details: b-lactamase, cited from earlier work
S. aureus (SA) agr-I [2] = tested on: S. aureus (SA) agr-I; parameters: method as in ref (5) (a number printed in a supplementary file, which may have a reference list of its own: not looked up in the article's list); details: hemolysis; ref (5); cited from earlier work
[3] = tested on: S. epidermidis (SE) agr-II; details: fluorescence; at 100 nM; ref (11); cited from earlier work
[4] = tested on: S. epidermidis (SE) agr-III; details: fluorescence; at 10 µM; ref (11); cited from earlier work
[5] = target: S. aureus agr-I spa-GFP reporter strain (JE2, MRSA) (Staphylococcus aureus, UniProt A0A0H2XKA3); assay: Fluorescence reporter assay for agr deactivation of virulent S. aureus (JE2 spa-GFP); format: cell-based; details: GFP expression relative to non-induced cultures
Description: A fluorescent reporter strain of S. aureus JE2 containing a plasmid with a spa::GFP promoter was constructed by transforming the strain with pALC1741 ([52]). Cultures of the reporter strain were grown from single colonies in TSB medium containing chloramphenicol (CAM, 10 μg/mL) and S. aureus AIP-I (1) (concentrations = 500 nM, 100 nM, or 50 nM) to OD600 = 0.2–0.3 (early exponential phase) at 37°C. Assays were performed in sterile black 96-well plates with clear bottoms. Peptide solutions (15 μL) in 1:5 serial dilutions from DMSO stock solutions (1 mM) in TSB medium were added to the 96-well plate in technical triplicate followed by the induced bacterial cultures (135 μL). Control wells were uninduced cultures containing no S. aureus AIP-I (1). The 96-well plates were incubated in a plate reader at 37°C shaking at 283 rpm and fluorescence (GFP: excitation 479 nm, emission 520 nm, automatic gain), and OD600 values were continuously measured. […] Relative GFP expression was plotted to obtain IC50 values by non-linear regression with variable slope using GraphPad Prism 10.4 software. All assays were performed in biological triplicate.

SA AgrC-II = SA AgrC-II (Staphylococcus aureus, UniProt O33587); assay: β-Lactamase assay, reporter strain RN10829 (P2-agrA:P3-blaZ) with pagrC-II; format: cell-based
Procedure, shortened: (§1)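 S. aureus RN10829 P2-agrA:P3-blaZ reporter carrying a plasmid for the matching wild-type AgrC, grown in TSB to OD600 0.35–0.40. Cells met peptides (10 μM–10 pM) plus cognate AIP at 100 nM for 1 h at 37°C, then nitrocefin (33.3 μg/mL) turnover was read at OD486 for 10 min; IC50 from linear rates.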

SA AgrC-I = SA AgrC-I (Staphylococcus aureus, UniProt O07911); assay: β-Lactamase assay, reporter strain RN10829 (P2-agrA:P3-blaZ) with pagrC-I; format: cell-based
Procedure, shortened: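 S. aureus RN10829 (P2-agrA:P3-blaZ) expressing AgrC-I from plasmid, grown in TSB to OD600 0.35–0.40, treated with peptides (10 μM–10 pM) plus cognate AIP (100 nM) for 1 h at 37°C, 200 rpm.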

SA AgrC-IV = SA AgrC-IV (Staphylococcus aureus, UniProt Q309Z2); assay: β-Lactamase assay, reporter strain RN10829 (P2-agrA:P3-blaZ) with pagrC-IV; format: cell-based
Procedure, shortened: as §1

SA AgrC-III = SA AgrC-III (Staphylococcus aureus, UniProt O33590); assay: β-Lactamase assay, reporter strain RN10829 (P2-agrA:P3-blaZ) with pagrC-III; format: cell-based
Procedure, shortened: as §1

S. aureus (SA) agr-III = details: b-lactamase, cited from earlier work
S. aureus (SA) agr-IV = details: b-lactamase; ref (4); cited from earlier work

Chain of S. aureus agr-I spa-GFP reporter strain (JE2, MRSA) (A0A0H2XKA3 entry or part of it): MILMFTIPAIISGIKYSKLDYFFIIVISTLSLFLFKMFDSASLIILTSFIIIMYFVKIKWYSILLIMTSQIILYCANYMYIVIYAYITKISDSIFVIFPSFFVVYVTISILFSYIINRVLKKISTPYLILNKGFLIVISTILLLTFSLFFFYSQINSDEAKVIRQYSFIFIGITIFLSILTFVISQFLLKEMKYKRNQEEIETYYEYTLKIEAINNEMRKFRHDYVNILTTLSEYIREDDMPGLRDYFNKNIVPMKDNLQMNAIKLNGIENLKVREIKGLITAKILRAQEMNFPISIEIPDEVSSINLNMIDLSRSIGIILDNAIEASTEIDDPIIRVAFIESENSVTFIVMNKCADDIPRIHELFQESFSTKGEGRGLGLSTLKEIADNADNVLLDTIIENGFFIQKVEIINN
Chain of SA AgrC-I (O07911 entry or part of it): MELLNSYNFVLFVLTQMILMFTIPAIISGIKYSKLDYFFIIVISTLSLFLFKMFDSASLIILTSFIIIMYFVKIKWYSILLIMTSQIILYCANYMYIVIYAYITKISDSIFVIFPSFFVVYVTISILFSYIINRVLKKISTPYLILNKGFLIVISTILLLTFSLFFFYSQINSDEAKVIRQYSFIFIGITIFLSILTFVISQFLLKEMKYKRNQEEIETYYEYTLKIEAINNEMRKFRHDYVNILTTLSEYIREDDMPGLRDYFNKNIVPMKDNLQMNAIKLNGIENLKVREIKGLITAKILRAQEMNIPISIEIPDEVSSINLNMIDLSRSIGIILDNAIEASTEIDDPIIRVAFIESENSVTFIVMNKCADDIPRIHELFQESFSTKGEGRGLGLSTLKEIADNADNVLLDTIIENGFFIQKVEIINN
Chain of SA AgrC-II (O33587 entry or part of it): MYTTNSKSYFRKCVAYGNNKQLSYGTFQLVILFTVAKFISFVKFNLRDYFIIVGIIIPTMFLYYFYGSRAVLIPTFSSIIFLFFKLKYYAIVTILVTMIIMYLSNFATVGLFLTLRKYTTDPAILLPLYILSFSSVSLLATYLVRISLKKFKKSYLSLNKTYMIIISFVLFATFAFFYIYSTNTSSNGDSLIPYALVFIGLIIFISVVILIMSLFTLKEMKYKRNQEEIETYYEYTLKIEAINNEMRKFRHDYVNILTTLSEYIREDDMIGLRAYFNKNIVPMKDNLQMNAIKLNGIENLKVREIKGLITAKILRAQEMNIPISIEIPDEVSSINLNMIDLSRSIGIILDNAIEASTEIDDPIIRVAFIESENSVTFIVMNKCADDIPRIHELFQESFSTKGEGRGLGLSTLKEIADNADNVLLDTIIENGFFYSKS
Chain of SA AgrC-IV (Q309Z2 entry or part of it): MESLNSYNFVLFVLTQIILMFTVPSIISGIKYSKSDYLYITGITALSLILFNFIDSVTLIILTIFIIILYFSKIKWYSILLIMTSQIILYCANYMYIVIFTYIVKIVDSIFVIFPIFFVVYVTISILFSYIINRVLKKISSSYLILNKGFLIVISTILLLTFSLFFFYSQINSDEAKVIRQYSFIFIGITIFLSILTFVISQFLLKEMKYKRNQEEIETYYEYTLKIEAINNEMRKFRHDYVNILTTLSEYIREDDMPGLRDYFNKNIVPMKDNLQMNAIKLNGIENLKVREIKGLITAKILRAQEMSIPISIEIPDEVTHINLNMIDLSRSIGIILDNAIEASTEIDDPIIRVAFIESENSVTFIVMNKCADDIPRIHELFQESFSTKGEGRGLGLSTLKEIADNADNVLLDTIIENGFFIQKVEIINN
Chain of SA AgrC-III (O33590 entry or part of it): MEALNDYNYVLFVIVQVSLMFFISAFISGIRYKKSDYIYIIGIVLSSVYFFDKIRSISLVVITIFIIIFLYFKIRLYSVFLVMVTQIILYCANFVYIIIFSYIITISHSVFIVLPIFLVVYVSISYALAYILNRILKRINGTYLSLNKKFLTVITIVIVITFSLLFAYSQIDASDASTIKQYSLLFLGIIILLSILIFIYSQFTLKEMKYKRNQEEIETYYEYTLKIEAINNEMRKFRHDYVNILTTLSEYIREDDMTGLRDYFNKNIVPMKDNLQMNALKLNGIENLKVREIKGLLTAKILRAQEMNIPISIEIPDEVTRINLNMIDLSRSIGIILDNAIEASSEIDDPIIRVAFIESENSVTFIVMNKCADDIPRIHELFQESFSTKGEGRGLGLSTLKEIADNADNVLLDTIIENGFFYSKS

S. aureus AIP-III D4A [compound 57, reference compound]
IC50 (S. aureus (SA) agr-II): 0.06 nM | IC50 (S. aureus (SA) agr-I [1]; ref (8)): 0.16 ± 0.01 nM | IC50 (S. aureus (SA) agr-I [2]): 0.082 nM | inhibition at 100 nM, SE agr-II [3]: ~ 70% | inhibition at 10 µM, SE agr-III [4]: ~ 25%

NCCCC[C@H](N)C(=O)N[C@@H](Cc1ccc(O)cc1)C(=O)N[C@@H](Cc1ccc(O)cc1)C(=O)N1CCC[C@H]1C(=O)N[C@H]1CSC(=O)[C@H](Cc2ccccc2)NC(=O)[C@H](Cc2ccc(O)cc2)NC(=O)CNC(=O)[C@H](Cc2c[nH]c3ccccc23)NC1=O [compound 33, S. simulans AIP-II] (H-KYYPCWGYF; thioester 5-C)
IC50 ([5]; induced with 1 [50 nM]): 3.3 nM | IC50 ([5]; induced with 1 [100 nM]): 5.2 nM | IC50 ([5]; induced with 1 [500 nM]): 18.4 nM | IC50 (SA AgrC-II): 80 ± 7 nM | IC50 (SA AgrC-I): 1.9 ± 0.3 nM | IC50 (SA AgrC-IV): 273 ± 26 nM | IC50 (SA AgrC-III): 198 ± 33 nM

CC[C@H](C)[C@@H]1NC(=O)[C@H](Cc2ccccc2)NC(=O)[C@H](CC(=O)O)NC(=O)[C@@H](NC(=O)[C@@H](NC(=O)[C@H](CO)NC(=O)[C@@H](N)Cc2ccc(O)cc2)[C@@H](C)O)CSC(=O)[C@H](CCSC)NC1=O [compound 1, S. aureus AIP-I] (H-YSTCDFIM; thioester 4-C)
IC50 (S. aureus (SA) agr-II): 3.34 nM | EC50 (S. aureus (SA) agr-I [1]; ref (3)): 40 nM and 23 nM | EC50 (S. aureus (SA) agr-I [1]; ref (4)): 28 nM | EC50 (S. aureus (SA) agr-I [1]; ref (6)): 11 nM | EC50 (S. aureus (SA) agr-I [1]; ref (7)): 3.21 nM | IC50 (S. aureus (SA) agr-III; ref (2)): 3.1 ± 1.3 nM | IC50 (S. aureus (SA) agr-III; ref (4)): 3 nM | EC50 (S. aureus (SA) agr-IV): 26000 nM

NCCCC[C@H](N)C(=O)N[C@@H](Cc1ccc(O)cc1)C(=O)N[C@@H](CC(N)=O)C(=O)N1CCC[C@H]1C(=O)N[C@H]1CSC(=O)[C@H](Cc2ccccc2)NC(=O)[C@H](Cc2ccc(O)cc2)NC(=O)CNC(=O)[C@H](Cc2c[nH]c3ccccc23)NC1=O [compound 34, S. simulans AIP-III] (H-KYNPCWGYF; thioester 5-C)
IC50 (SA AgrC-II): 60 ± 7 nM | IC50 (SA AgrC-I): 1.6 ± 0.1 nM | IC50 (SA AgrC-IV): 351 ± 60 nM | IC50 (SA AgrC-III): 103 ± 5 nM
